Test results from ChEMBL document CHEMBL3046188, “Prodrug-oriented molecular design of neonicotinoids: preparation of imidacloprid-related 5,5-dimethoxy-1,3-diazacyclohexane derivatives and their insecticidal activity” (2005).

Columns and labels:
Type in all cases: functional
Periplaneta americana [1] = assay: Neuroblocking potency in Periplaneta americana (American cockroach) abdominal fifth and sixth ganglia assessed as neuroblocking concentration
Periplaneta americana [2] = assay: Insecticidal activity against Periplaneta americana (American cockroach) administered through injection into abdomen measured 24 hr post compound injection
Periplaneta americana [3] = assay: Insecticidal activity against Periplaneta americana (American cockroach) administered through injection into abdomen co-injceted with 50 ug piperonyl butoxide and 50 ug NIA 16388 measured 24 hr post compound injection
Myzus persicae [4] = assay: Insecticidal activity against Myzus persicae (green peach aphid) reared on compound pre-treated […] plants assessed as insect mortality rate at 0.16 ppm measured 7 days post compound treatment
Myzus persicae [5] = assay: Insecticidal activity against Myzus persicae (green peach aphid) reared on compound pre-treated […] plants assessed as insect mortality rate at 0.8 ppm measured 7 days post compound treatment
Myzus persicae [6] = assay: Insecticidal activity against Myzus persicae (green peach aphid) reared on compound pre-treated […] plants assessed as insect mortality rate at 4 ppm measured 7 days post compound treatment
Myzus persicae [7] = assay: Insecticidal activity against Myzus persicae (green peach aphid) reared on compound pre-treated […] plants assessed as insect mortality rate at 20 ppm measured 7 days post compound treatment
Myzus persicae [8] = assay: Insecticidal activity against Myzus persicae (green peach aphid) reared on compound pre-treated […] plants assessed as insect mortality rate at 100 ppm measured 7 days post compound treatment

SMILES | Activity (Periplaneta americana [1]) | MLD (Periplaneta americana [2]) | MLD (Periplaneta americana [3]) | mortality at 0.16 ppm (Myzus persicae [4]) | mortality at 0.8 ppm (Myzus persicae [5]) | mortality at 4 ppm (Myzus persicae [6]) | mortality at 20 ppm (Myzus persicae [7]) | mortality at 100 ppm (Myzus persicae [8])
C/N=C(\NCc1ccc(Cl)nc1)N[N+](=O)[O-] | 0.0085 mM | 0.0051 µmol | 0.0051 µmol | 100% | 100% | 100% | 100% | –
O=[N+]([O-])/N=C1\NCCCN1Cc1ccc(Cl)nc1 | 0.0045 mM | 9.6e-05 µmol | 0.015 µmol | 90% | 100% | 100% | 100% | –
N/C(=N\[N+](=O)[O-])NCc1ccc(Cl)nc1 | >0.65 mM | >0.4 µmol | >0.4 µmol | – | – | – | – | 60%
COC1CN/C(=N\[N+](=O)[O-])N(Cc2ccc(Cl)nc2)C1 (stereo not drawn) | – | – | – | – | – | 0% | 40% | –
CC1(C)CN/C(=N\[N+](=O)[O-])N(Cc2ccc(Cl)nc2)C1 | – | – | – | – | – | 0% | 60% | –
COC1(OC)CN/C(=C\[N+](=O)[O-])N(CC2CCOC2)C1 (stereo not drawn) | >0.54 mM | >0.36 µmol | >0.36 µmol | – | – | 0% | 60% | –
COC1(OC)CN/C(=C\[N+](=O)[O-])N(Cc2ccc(Cl)nc2)C1 | 1 mM | 0.35 µmol | >0.44 µmol | – | 0% | 60% | 90% | –
COC1(OC)CN/C(=N\C#N)N(Cc2ccc(Cl)nc2)C1 | 0.62 mM | >0.4 µmol | >0.4 µmol | 20% | 60% | 60% | 100% | –
COC1(OC)CN(C)/C(=N\[N+](=O)[O-])N(Cc2cnc(Cl)s2)C1 | >0.54 mM | 0.36 µmol | >0.36 µmol | 40% | 60% | 100% | 100% | –
COC1(OC)CN(C)/C(=N\[N+](=O)[O-])N(Cc2ccc(Cl)nc2)C1 | >0.56 mM | 0.36 µmol | >0.36 µmol | 30% | 60% | 90% | 90% | –
COC1(OC)CN/C(=N\[N+](=O)[O-])N(Cc2cnc(Cl)s2)C1 | >0.56 mM | 0.24 µmol | >0.34 µmol | 50% | 60% | 100% | 100% | –
COC1(OC)CN/C(=N\[N+](=O)[O-])N(Cc2ccc(Cl)nc2)C1 | 0.56 mM | 0.19 µmol | >0.38 µmol | 60% | 90% | 100% | 100% | –
